Measured values from patent US20070203248A1, “Cardioprotective agents” (DABUR RESEARCH FOUNDATION., priority 2003, published 2007).
Several values for one entry are separate records, joined by “and”; a condition that tells them apart may be missing. Equal values may be shown once. Read-outs that look alike come from different tables or passages of the source.

Tests used:
[1] = system: Adriamycin treated rat liver tissue; settings: for LP (lipid peroxidation), liver: 24 hours
Protocol: (§1) Briefly male Wistar rats of the age group 5-6 weeks were maintained on normal rat pellets ad libitum. Rats were divided into four groups viz. Groups I, II, III and IV.
(§2) Group II: Animals treated with Adriamycin
(§3) Group III: Animals treated with 5-Methoxytryptamine and Adriamycin.
Group IV: Animals treated with 5-Methoxytryptamine
Each group consisted of 5 animals. 30 mg/kg body weight of Adriamycin was administered intraperitoneally to animals in Groups II and III. The animals comprising group III, were injected intraperitoneally with 5-Methoxytryptamine in concentrations ranging from 8.5-35 mg/kg body weight 30 minutes prior to the Adriamycin treatment. The animals comprising group IV, were injected intraperitoneally with 5-Methoxytryptamine in concentrations ranging from 8.5-35 mg/kg body weight. 24 hours later, the liver tissue of the animals were excised. The liver tissue was washed in ice cold saline twice, weighed and snap frozen at −70° C. for assaying for Lipid peroxidation.
Briefly 200 mg of the rat liver tissue was excised and homogenized in 2 ml of ice cold 10% Trichloro acetic acid buffer (TCA) buffer. To 200 ul of the homogenate thus obtained, 200 ul of 8.1% SDS, 1.5 ml of 20% Acetic acid, 1.5 ml of 0.8% of Thiobarbituric acid (TBA) and 1.0 ml of water was added in glass test tubes. The tubes were heated at 95° C. for 60 minutes. The mixture was cooled and diluted with 1 ml of double distilled water. A mixture of n-butanol and pyridine was prepared fresh in the ratio of 15:1 respectively. 5 ml of the n-butanol-pyridine mix was added to each tube containing the liver tissue homogenates. The tubes were centrifuged at 3000 rpm for 10 minutes at 4° C. 200 ul of the colored liquid was collected from the interphase of the aqueous and organic layers and the absorbance was measured spectrophotometrically at 532 nm. The control experiments contained only the TCA buffer treated similarly. The standard tubes contained Malonaldehyde in concentrations ranging from 2.5-25 uM. Malonaldehyde was dissolved in double distilled water. All experiments were carried out in triplicates. The extent of lipid peroxidation in the liver homogenates was expressed as uM/gm of the liver tissue. The extent of lipid peroxidation was calculated for the liver tissues of the animals comprising Groups I, II, III and IV.

[2] = system: Adriamycin treated rat myocardium; settings: for SOD (Superoxide Dismutase), myocardium: 24 hours
Protocol: as §1, §2
Each group consisted of 5 animals. 30 mg/kg body weight of Adriamycin was administered intraperitoneally to animals in Groups II and III. […] 24 hours later, the beating hearts of the animals were excised by decapitation. The heart tissue was washed in ice cold saline twice, weighed and frozen for assaying Superoxide Dismutase activity.
Briefly, 200 mg of rat myocardial tissue was excised and homogenized in 2 ml of ice cold Tris sucrose buffer (pH 7.4). The homogenate was centrifuged at 10000 rpm, at 4° C. for 10 minutes, and the supernatent carefully aspirated and collected. For each experiment, 1.2 ml of sodium pyrophosphate buffer was taken in clean glass tubes. To this 100 ul of 186 uM Phenazine methosulphate solution, 300 ul of a 300 uM solution of Nitroblue tetrazolium and 600 ul of double distilled water was added and mixed well. 600 ul of the supernatent obtained earlier was added per tube. A solution of NADH of the concentration 780 uM was freshly prepared for the experiments. The reaction in the tubes was initiated by the addition of 200 ul of a 780 uM solution of NADH per tube. The tubes were incubated for 90 seconds at room temperature. The reaction was stopped by the addition of 1 ml of 100% glacial acetic acid per tube and the absorbance measured spectrophotometrically at 560 nM. All experiments were carried out in triplicates. The control experiments contained only ice cold Tris Sucrose buffer (pH 7.4) treated identically. The standard tubes contained the enzyme Superoxide Dimutase dissolved in double distilled water in concentrations ranging from 0.1 U to 20 Units treated identically as above. The enzyme activity in the tissue homogenates was quantitated by rate of decrease in optical density at 560 nm, and expressed as units/mg protein. The Superoxide Dismutase activity was calculated for the cardiac tissues of the animals comprising Groups I, II, III and IV.

[3] = DPPH free radical scavenging assay in vitro; format: biochemical; settings: for Mean percent Radical scavenging: DPPH, 5 minutes
Protocol: The free radical scavenging potential of 5-Methoxytryptamine was evaluated by the 1,1 diphenyl-2 picryl hydrazyl (DPPH) assay as described (Hycon, Lee et al, Arch. Pharm. Res. 19 (3), 223-227). […] 5-Methoxytryptamine was dissolved in 3.5% ethanol in normal saline and screened for its radical scavenging activity in concentration ranging from 1-1000 ug/ml. 100 ul of 0.2 mM DPPH was incubated with 100 ul of varying concentrations of 5-Methoxy tryptamine in 96 well tissue culture plates for 20 seconds at room temperature. All experiments were carried out in triplicates. 3.5% ethanol in normal saline was similarly incubated with 0.2 mM DPPH in control experiments for evaluating the effect of the vehicle on radical scavenging. The change in absorbance of DPPH incubated with varying concentrations of 5-Methoxy tryptamine of the vehicle was read at 517 nm for every 60 secs for 5 minutes. The absorbance of 0.2 mM DPPH taken after incubating for 5 minutes at room temperature was the blank O.D. The percent free radical scavenging ability of 5-Methoxy tryptamine was calculated as defined below. Percent Free Radical scavenging=Blank OD at 5 minutes−Sample OD at 5 minutes×100/Blank OD at 5 minutes

[4] = system: Adriamycin treated rat myocardium; settings: for LP (lipid peroxidation), myocardium: 24 hours
Excerpt: The effect of 5-Methoxytryptamine on lipid peroxidation in Adriamycin treated myocardial tissue was quantitated by Thiobarbituric acid reactive substances based assay as described (Uchiyama and Mihara, M., Anal. Biochem. 86, 271-278, 1978). Briefly male Wistar rats of the age group 5-6 weeks were maintained on normal rat pellets ad libitum. Rats were divided into four groups viz Groups I, II, III and IV.
Group II, Animals treated with Adriamycin
as §3
(§4) Group IV: Animals treated with 5 Methoxytryptamine
Each group consisted of 5 animals. 30 mg/kg body weight of Adriamycin was administered intraperitoneally to animals in Groups II and III. The animals comprising group III, were injected intraperitoneally with 5-Methoxytryptamine in concentration ranging from 8.5-35 mg/kg body weight 30 minutes prior to the Adriamycin treatment. The animals comprising group IV, were injected intraperitoneally with 5-Methoxytryptamine in concentration ranging from 8.5-35 mg/kg body weight. 24 hours later, the beating hearts of the animals were excised by decapitation. The heart tissue was washed in ice cold saline twice, weighed and snap frozen at −70° C. for assaying for Lipid peroxidation.
Briefly 200 mg of the live rat myocardial tissue was excised and homogenized in 2 ml of ice cold 10% Trichloro acetic acid buffer (TCA) buffer. To 200 ul of the homogenate thus obtained, 200 ul of 8.1% SDS, 1.5 ml of 20% Acetic acid, 1.5 ml of 0.8% of Thiobarbituric acid (TBA) and 1.0 ml of water was added in glass test tubes. The tubes were heated at 95° C. for 60 minutes. The mixture was cooled and diluted with 1 ml of double distilled water. A mixture of n-butanol and pyridine was prepared fresh in the ratio of 15:1 respectively. 5 ml of the n-butanol-pyridine mix was added to each tube containing the cardiac tissue homogenates. The tubes were centrifuged at 3000 rpm for 10 minutes at 4° C. 200 ul of the coloured liquid was collected from at the interphase of the aqueous and organic layers and the absorbance was measured spectrophotometrically at 532 nm. The control experiments contained only the TCA buffer treated similarly. The standard tubes contained Malonaldehyde in concentrations ranging from 2.5-25 uM. Malonaldehyde was dissolved in double distilled water. All experiments were carried out in triplicates. The extent of lipid peroxidation in the cardiac homogenates was expressed as uM/gm of the cardiac tissue. The extent of lipid peroxidation was calculated for the cardiac tissues of the animals comprising Groups I, II, III and IV.

[5] = system: Adriamycin treated animals
Protocol: The effect of 5-Methoxytryptamine on circulating LDH levels was quantitated as described. Briefly male Wistar rats of the age group 5-6 weeks were maintained on normal rat pellets ad libidum. Rats were divided into four groups viz. Groups I, II, III and IV.
as §2
(§5) Group III: Animals treated with Adriamycin and 5-Methoxytryptamine
as §4
Each group consisted of 6 animals. 5 mg/kg of Adriamycin was administered intraperitoneally to animals of groups II and III as two equal divided doses once every seven days. The animals comprising Group III were injected intraperitoneally with 17.5 mg/kg of 5-Methoxytryptamine, as seven equal doses given every alternate day. The animals of the group III were injected with 5-Methoxytryptamine, 30 minutes prior to the Adriamycin injection. The animals comprising Group IV were treated with 17.5 mg/kg of 5-Methoxytryptamine as seven equal doses, given every alternate day. At the 41st day of the study, blood was collected from the retroorbital vein of all the animals in the study. The blood was kept at room temperature for 15 minutes, and spun at 3000 rpm for 15 minutes. […] The quantitation was carried out by kits procured from Bayer Diagnostics using RA 50 Chemistry Analyzer (Bayer Diagnostics), as per the manufacturer's instructions.

[6] = system: Adriamycin treated animals; remark: listed apart in the source
Protocol: The effect of 5-Methoxy tryptamine on circulating CK-MB levels was quantitated as described. Briefly male Wistar rats of the age group 5-6 weeks were maintained on normal rat pellets ad libidum. Rats were divided into four groups viz. Groups I, II, III and IV.
as §2, §5
Group IV: Animals treated with 5-Methoxytryptamine.
Each group consisted of 6 animals. 5 mg/kg of Adriamycin was administered intraperitoneally to animals of groups II and III as two equal divided doses once every seven days. The animals comprising Group III were injected intraperitoneally with 17.5 mg/kg of 5-Methoxytryptamine, as seven equal doses given every alternate day. The animals of the group III were injected with 5-Methoxytryptamine, 30 minutes prior to the Adriamycin injection. The animals comprising Group IV were treated with 17.5 mg/kg of 5-Methoxytryptamine as seven equal doses, given every alternate day. At the 41st day of the study, blood was collected from the retroorbital vein of all the animals in the study. The blood was kept at room temperature for 15 minutes, and spun at 3000 rpm for 15 minutes. […] The quantitation was carried out by kits procured from Bayer Diagnostics using RA 50 Chemistry Analyzer (Bayer Diagnostics), as per the manufacturers instructions.

[7] = system: human tumour cell lines; assay: MTT cytotoxicity assay, effect of 5-Methoxytryptamine on anticancer activity of Adriamycin; format: cell-based; settings: 5-Methoxytryptamine at its highest concentration 1 ug/ml; MCF7, DU145, MiaPaCa2, HT 29
Protocol: Adriamycin was dissolved in saline immediately before use. […] 1 ug/ml.

[8] = Group IV A: 5 MT 8.5 mg/kg i.p. alone
[9] = Group IV B: 5 MT 17 mg/kg i.p. alone
[10] = Group IV C: 5 MT 35 mg/kg i.p. alone
[11] = 8.5-35 mg/kg, 30 mg/kg doxorubicin
[12] = Group IV: 5-Methoxytryptamine 17.5 mg/kg as seven doses every alternate day, alone, serum, day 41

With COc1ccc2[nH]cc(CCN)c2c1 [5-Methoxytryptamine] the “Effect on lipid peroxidation in rat liver tissue, alone” value ([1]; 8.5-35 mg/kg alone) was “does not alter the lipid peroxidation”, the “LP (lipid peroxidation), liver” value [1, 8] was 601 ± 16.5 µmol/g and the “LP (lipid peroxidation), liver” value [1, 9] was 625 ± 15.5 µmol/g. The “LP (lipid peroxidation), liver” value [1, 10] was 630 ± 16.3 µmol/g, the “Effect on Superoxide Dismutase activity in rat myocardium, alone” value ([2]; 8.5-35 mg/kg alone) was “did not alter the Superoxide Dismutase activity” and the “Effect on Superoxide Dismutase activity in rat myocardium treated with Doxorubicin” value [2, 11] was “increases the Superoxide Dismutase activity”. For the same compound, the “SOD (Superoxide Dismutase), myocardium” value [2, 8] was 32 ± 2.5 U/mg, the “SOD (Superoxide Dismutase), myocardium” value [2, 9] was 30 ± 2.9 U/mg and the “SOD (Superoxide Dismutase), myocardium” value [2, 10] was 34 ± 4.5 U/mg. For the same compound, the “Mean percent Radical scavenging” value ([3]; 31 ug/ml) was 10 ± 4.3%, the “Mean percent Radical scavenging” value ([3]; 62.5 ug/ml) was 25 ± 5.0% and the “Mean percent Radical scavenging” value ([3]; 125 ug/ml) was 75.4 ± 5.5%. The “Mean percent Radical scavenging” value ([3]; 250 ug/ml) was 85.24 ± 4.8%, the “Mean percent Radical scavenging” value ([3]; 500 ug/ml) was 87.4 ± 5.0% and the “Mean percent Radical scavenging” value ([3]; 1000 ug/ml) was 88.25% and 88.25 ± 5.1%. For the same compound, the “Concentration range in which free radicals are scavenged” value ([3]; DPPH in vitro) was 31 to 1000 µg/mL, the “Effect on lipid peroxidation in rat myocardial tissue, alone” value ([4]; 8.5-35 mg/kg alone) was “did not alter the lipid peroxidation” and the “Effect on lipid peroxidation in rat myocardial tissue treated with doxorubicin” value [4, 11] was “inhibits the lipid peroxidation”. For the same compound, the “LP (lipid peroxidation), myocardium” value [4, 8] was 535 ± 12.5 µmol/g, the “LP (lipid peroxidation), myocardium” value [4, 9] was 500 ± 14.5 µmol/g and the “LP (lipid peroxidation), myocardium” value [4, 10] was 513 ± 12.3 µmol/g. For the same compound, the “Effect on LDH levels in Adriamycin treated animals” value ([5]; 17.5 mg/kg, Adriamycin 5 mg/kg) was “reduces the LDH levels”, the LDH [5, 12] was 1009 ± 26 U/L and the “Effect on CK-MB levels in Adriamycin treated animals” value ([6]; 17.5 mg/kg, Adriamycin 5 mg/kg) was “reduces the CK-MB levels”. The “CK - MB” value [6, 12] was 379 ± 26 U/L and the “Effect of addition on ED50 values of the cytotoxicity of Adriamycin” value [7] was “is not altered”.
